Source: patent US8173689B2 (Novartis AG, priority 2006, dated 2012)
Read-outs that look alike come from different tables or passages of the source. One block for each molecule: values may come before it.

Legend:
kinase domain of PDGFRβ = molecular target: T1, kinase domain of PDGFRβ (Homo sapiens, UniProt P09619); assay: Inhibition of PDGFRb kinase signaling in an in vitro biochemical assay (alphascreen); settings: tested at about 1 μM, read-out: PDGFRβ percent inhibition
T1 construct: The kinase domain of PDGFRβ was assayed in 50 mM Hepes; purchased Invitrogen P3082

[1] = test system: MNFS60 (murine AML cells); assay: Cell viability assay in MCSF dependent MNFS60 cells (Cell Titer Glo); format: cell-based; settings: Mus musculus, tested at about 1 μM, read-out: M-NFS-60 CP percent inhibition
How it was run: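 Compounds were serially diluted 3-fold in DMSO to 500× final and added to cells with MCSF at 10 ng/ml final. After 72 hrs at 37° C. under 5% CO2, viable cells were quantified by CellTiter-Glo luminescence; triplicate wells gave EC50 values by curve fitting.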

kinase domain of cKIT = molecular target: T2, kinase domain of cKIT (Homo sapiens, UniProt P10721); assay: Inhibition of cKIT kinase signaling in an in vitro biochemical assay (alphascreen); settings: tested at about 1 μM, read-out: cKit percent inhibition
T2 construct: The kinase domain of cKIT was assayed in 50 mM Hepes; purchased Upstate 14-559

[2] = molecular target: T3, cytoplasmic domain of the human CSF-1R (Homo sapiens, UniProt P07333); assay: In vitro kinase assay for colony stimulating factor-1 receptor (AlphaScreen); format: biochemical; settings: tested at about 1 μM, read-out: CSF-1R percent inhibition
T3 construct: Recombinant protein corresponding to the cytoplasmic domain of the human CSF-1R; purchased Invitrogen Corporation, Carlsbad, Calif; PV3249
T3 sequence (P07333 539-972 limits assumed): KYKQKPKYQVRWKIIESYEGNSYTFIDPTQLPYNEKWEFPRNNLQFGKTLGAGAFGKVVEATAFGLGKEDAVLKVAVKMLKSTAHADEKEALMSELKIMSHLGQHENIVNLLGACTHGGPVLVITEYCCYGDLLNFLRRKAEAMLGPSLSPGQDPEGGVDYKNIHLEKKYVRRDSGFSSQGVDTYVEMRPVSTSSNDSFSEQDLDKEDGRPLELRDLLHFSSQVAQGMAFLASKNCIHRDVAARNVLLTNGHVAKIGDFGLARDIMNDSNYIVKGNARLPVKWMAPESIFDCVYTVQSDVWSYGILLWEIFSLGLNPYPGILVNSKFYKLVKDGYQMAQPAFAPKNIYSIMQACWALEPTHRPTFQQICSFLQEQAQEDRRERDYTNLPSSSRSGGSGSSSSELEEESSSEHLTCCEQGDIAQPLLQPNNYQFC
How it was run: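 AlphaScreen read-out (PT66 anti-pTyr acceptor beads, streptavidin donor beads, overnight incubation) measured phosphorylated peptide product. The product was formed by the human CSF-1R cytoplasmic domain at 4 nM with 1 µM ATP in Mg2+/Mn2+ HEPES buffer, pH 7.5. Compound dilution series were 3-fold, starting at 25 µM.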

[3] = molecular target: T4, full-length human CSF-1R receptor (Homo sapiens, UniProt P07333); assay: In vitro inhibition of CSF-1R receptor tyrosine phosphorylation in transfected HEK293H cells stimulated with MCSF; format: cell-based; settings: HEK293-H, tested at about 1 μM, read-out: pCSF1R percent inhibition
T4 construct: transfected with the full-length human CSF-1R receptor cloned in house; expressed in transfected cells; host or cells: HEK293H (Invitrogen Cat. #11631017)
Protocol: The lysate was then transferred to total CSF-1R antibody coated 96-well plates that had already been blocked with 3% Blocker A from Mesoscale discovery (MSD) for 2 hours and washed afterwards. Lysates were incubated overnight at 4° C. and the plates were then washed 4× with MSD Tris Wash Buffer. […] The plates were read on the Sector 6000 instrument (MSD). Raw data was imported in Abase and EC50s calculated with XL-fit data analysis software.

T1 sequence (P09619 600-962 limits assumed): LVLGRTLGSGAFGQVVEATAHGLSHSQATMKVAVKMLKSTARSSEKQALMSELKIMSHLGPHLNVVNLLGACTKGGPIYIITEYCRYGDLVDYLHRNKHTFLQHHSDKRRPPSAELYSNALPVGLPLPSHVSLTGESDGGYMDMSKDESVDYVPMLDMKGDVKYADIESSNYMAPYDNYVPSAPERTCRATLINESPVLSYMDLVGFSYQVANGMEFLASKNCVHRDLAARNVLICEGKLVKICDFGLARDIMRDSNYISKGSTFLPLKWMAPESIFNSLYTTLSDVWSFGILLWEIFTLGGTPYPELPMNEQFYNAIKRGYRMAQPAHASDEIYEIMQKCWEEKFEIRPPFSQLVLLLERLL
T2 sequence (P10721 589-937 limits assumed): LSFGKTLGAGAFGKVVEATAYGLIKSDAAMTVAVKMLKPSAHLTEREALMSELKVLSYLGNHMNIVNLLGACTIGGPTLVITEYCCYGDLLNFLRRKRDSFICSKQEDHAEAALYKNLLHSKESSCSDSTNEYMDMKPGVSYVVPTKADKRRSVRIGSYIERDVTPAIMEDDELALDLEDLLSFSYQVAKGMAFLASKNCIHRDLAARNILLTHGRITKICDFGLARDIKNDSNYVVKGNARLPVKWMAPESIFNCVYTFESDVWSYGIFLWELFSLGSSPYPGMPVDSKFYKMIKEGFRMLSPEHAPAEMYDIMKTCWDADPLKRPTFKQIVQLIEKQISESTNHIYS
T4 sequence (P07333 20-972): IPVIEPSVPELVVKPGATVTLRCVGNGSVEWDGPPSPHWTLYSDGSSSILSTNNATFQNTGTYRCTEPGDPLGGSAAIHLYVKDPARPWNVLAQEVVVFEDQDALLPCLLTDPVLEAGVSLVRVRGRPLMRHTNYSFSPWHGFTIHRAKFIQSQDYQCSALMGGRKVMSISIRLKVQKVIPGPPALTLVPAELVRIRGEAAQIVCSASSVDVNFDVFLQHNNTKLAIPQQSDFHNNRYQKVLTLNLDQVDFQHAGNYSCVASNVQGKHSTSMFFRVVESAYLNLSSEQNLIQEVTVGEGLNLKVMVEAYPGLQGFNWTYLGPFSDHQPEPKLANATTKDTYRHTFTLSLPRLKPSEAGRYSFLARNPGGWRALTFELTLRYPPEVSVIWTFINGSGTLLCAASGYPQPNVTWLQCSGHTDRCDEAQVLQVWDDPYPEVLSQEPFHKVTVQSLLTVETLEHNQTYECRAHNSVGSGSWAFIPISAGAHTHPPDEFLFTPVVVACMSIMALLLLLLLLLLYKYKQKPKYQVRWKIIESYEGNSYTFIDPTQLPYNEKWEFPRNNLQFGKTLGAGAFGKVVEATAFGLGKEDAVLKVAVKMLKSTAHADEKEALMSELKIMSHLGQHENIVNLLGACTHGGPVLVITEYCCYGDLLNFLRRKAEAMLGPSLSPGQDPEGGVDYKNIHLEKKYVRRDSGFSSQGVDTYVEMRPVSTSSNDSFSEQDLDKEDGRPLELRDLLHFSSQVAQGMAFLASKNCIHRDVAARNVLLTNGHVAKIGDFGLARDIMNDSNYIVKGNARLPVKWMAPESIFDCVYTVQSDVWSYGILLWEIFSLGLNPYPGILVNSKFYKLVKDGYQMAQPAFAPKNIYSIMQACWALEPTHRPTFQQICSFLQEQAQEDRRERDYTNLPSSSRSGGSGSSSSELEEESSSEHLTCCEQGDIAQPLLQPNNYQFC

Compound: CNC(=O)c1cc(Oc2ccc3nc(NCc4ccncc4)sc3c2)ccn1 [Compound 139]
inhibition at 1 µM (kinase domain of PDGFRβ; compounds of Table 3): 19% | inhibition at 1 µM ([1]; compounds of Table 3): 46% | inhibition at 1 µM (kinase domain of cKIT; compounds of Table 3): 24% | inhibition at 1 µM ([2]; compounds of Table 3): 100% | inhibition at 1 µM ([3]; compounds of Table 3): 88%

Compound: CN1CCN(c2ccc(-c3cc(Oc4ccc5nc(N[C@@H]6CCCC[C@H]6O)sc5c4)ccn3)cn2)CC1 [Cmpd 164, (1R,2R)-2-(6-(6'-(4-methylpiperazin-1-yl)-2,3'-bipyridin-4-yloxy)benzo[d]thiazol-2-ylamino)cyclohexanol]
inhibition at 1 µM (kinase domain of PDGFRβ; compounds of Table 3): 87% | inhibition at 1 µM ([1]; compounds of Table 3): 100% | inhibition at 1 µM (kinase domain of cKIT; compounds of Table 3): 79% | inhibition at 1 µM ([2]; compounds of Table 3): 100% | inhibition at 1 µM ([3]; compounds of Table 3): 100%

Compound: CC(C)CONC(=O)c1cc(Oc2ccc3nc(NCC4CCCCC4)sc3c2)ccn1 [Example 380, 4-(2-(cyclohexylmethylamino)benzo[d]thiazol-6-yloxy)-N-isobutoxypicolinamide]
inhibition at 1 µM (kinase domain of PDGFRβ): 49% | inhibition at 1 µM ([1]; MCSF dependent MNFS60 cells): 79% | inhibition at 1 µM (kinase domain of cKIT): 53% | inhibition at 1 µM [2]: 100% | inhibition at 1 µM ([3]; HEK293H cells): 94%

Compound: CNC(=O)c1cc(Oc2ccc3nc(NCc4ccccc4N4CCCCC4)oc3c2)ccn1 [Compound 118, 4-[2-(2-Piperidin-1-yl-benzylamino)-benzooxazol-6-yloxy]-pyridine-2-carboxylic acid methylamide]
inhibition at 1 µM (kinase domain of PDGFRβ): 49% | inhibition at 1 µM ([1]; MNFS60 cells): 83% | inhibition at 1 µM (kinase domain of cKIT): 95% | inhibition at 1 µM [2]: 100% | inhibition at 1 µM ([3]; HEK293H cells): 69%

Compound: O[C@@H]1CCCC[C@H]1Nc1nc2ccc(Oc3ccnc(-c4ccc(N5CCOCC5)nc4)c3)cc2s1 [Cmpd 165, (1R,2R)-2-(6-(6'-morpholino-2,3'-bipyridin-4-yloxy)benzo[d]thiazol-2-ylamino)cyclohexanol]
inhibition at 1 µM (kinase domain of PDGFRβ; compounds of Table 3): 83% | inhibition at 1 µM ([1]; compounds of Table 3): 100% | inhibition at 1 µM (kinase domain of cKIT; compounds of Table 3): 83% | inhibition at 1 µM ([2]; compounds of Table 3): 100% | inhibition at 1 µM ([3]; compounds of Table 3): 98%

Compound: COc1ccc(-c2cc(Oc3ccc4nc(N[C@@H]5CCCC[C@H]5O)sc4c3)ccn2)cn1 [Cmpd 170, (1R,2R)-2-(6-(6'-methoxy-2,3'-bipyridin-4-yloxy)benzo[d]thiazol-2-ylamino)cyclohexanol]
inhibition at 1 µM (kinase domain of PDGFRβ; compounds of Table 3): 23% | inhibition at 1 µM ([1]; compounds of Table 3): 100% | inhibition at 1 µM (kinase domain of cKIT; compounds of Table 3): 28% | inhibition at 1 µM ([2]; compounds of Table 3): 100% | inhibition at 1 µM ([3]; compounds of Table 3): 96%

Compound: CNC(=O)c1cc(Oc2ccc3nc(NCc4ccccc4-n4cccn4)sc3c2)ccn1 [Compound 143, 4-[2-(2-Pyrazol-1-yl-benzyl-amino)-benzothiazol-6-yloxy]-pyridine-2-carboxylic acid methylamide]
inhibition at 1 µM (kinase domain of PDGFRβ): 4% | inhibition at 1 µM ([1]; MNFS60 cells): 97% | inhibition at 1 µM (kinase domain of cKIT): 33% | inhibition at 1 µM [2]: 99% | inhibition at 1 µM ([3]; HEK293H cells): 91%

Compound: O[C@@H]1CCCC[C@H]1Nc1nc2ccc(Oc3ccnc(-c4ccc(CN5CCOCC5)cc4)c3)cc2s1 [Cmpd 168, (1R,2R)-2-(6-(2-(4-(morpholinomethyl)phenyl)pyridin-4-yloxy)benzo[d]thiazol-2-ylamino)cyclohexanol]
inhibition at 1 µM (kinase domain of PDGFRβ; compounds of Table 3): 43% | inhibition at 1 µM ([1]; compounds of Table 3): 100% | inhibition at 1 µM (kinase domain of cKIT; compounds of Table 3): 40% | inhibition at 1 µM ([2]; compounds of Table 3): 100% | inhibition at 1 µM ([3]; compounds of Table 3): 99%

Compound: C[C@H](Nc1nc2ccc(Oc3ccnc(-c4cnn(C)c4)c3)cc2s1)C1CCCCC1 [Cmpd 163, (S)-N-(1-cyclohexylethyl)-6-(2-(1-methyl-1H-pyrazol-4-yl)pyridin-4-yloxy)benzo[d]thiazol-2-amine]
inhibition at 1 µM (kinase domain of PDGFRβ; compounds of Table 3): 39% | inhibition at 1 µM ([1]; compounds of Table 3): 100% | inhibition at 1 µM (kinase domain of cKIT; compounds of Table 3): 32% | inhibition at 1 µM ([2]; compounds of Table 3): 100% | inhibition at 1 µM ([3]; compounds of Table 3): 99%

Compound: CNC(=O)c1cc(Oc2ccc3nc(NCc4ccccc4C(F)(F)F)oc3c2)ccn1 [Compound 97, 4-[2-(2-Trifluoromethyl-benzylamino)-benzooxazol-6-yloxy]-pyridine-2-carboxylic acid methylamide]
inhibition at 1 µM (kinase domain of PDGFRβ): 5% | inhibition at 1 µM ([1]; MNFS60 cells): 67% | inhibition at 1 µM (kinase domain of cKIT): 99% | inhibition at 1 µM [2]: 99% | inhibition at 1 µM ([3]; HEK293H cells): 84%

Compound: CNC(=O)c1cc(Oc2ccc3nc(NCc4cccnc4)sc3c2)ccn1 [Compound 154, 4-{2-[(Pyridin-3-ylmethyl)-amino]-benzothiazol-6-yloxy}-pyridine-2-carboxylic acid methylamide]
inhibition at 1 µM (kinase domain of PDGFRβ): 18% | inhibition at 1 µM ([1]; MNFS60 cells): 48% | inhibition at 1 µM (kinase domain of cKIT): 17% | inhibition at 1 µM [2]: 99% | inhibition at 1 µM ([3]; HEK293H cells): 93%

Compound: CNC(=O)c1cc(Oc2ccc3nc(NCc4ccccc4Cl)sc3c2)ccn1 [Compound 127, 4-[2-(2-Chloro-benzylamino)-benzothiazol-6-yloxy]-pyridine-2-carboxylic acid methylamide]
inhibition at 1 µM (kinase domain of PDGFRβ): 20% | inhibition at 1 µM ([1]; MNFS60 cells): 95% | inhibition at 1 µM (kinase domain of cKIT): 81% | inhibition at 1 µM [2]: 100% | inhibition at 1 µM ([3]; HEK293H cells): 95%

More lines, main results first:

inhibition at 1 µM (kinase domain of PDGFRβ; compounds of Table 3): 41% | inhibition at 1 µM (kinase domain of cKIT; compounds of Table 3): 33% | inhibition at 1 µM ([2]; compounds of Table 3): 100% | inhibition at 1 µM ([3]; compounds of Table 3): 39%
Compound: CC(C)(C)[C@@H](CO)Nc1nc2ccc(Oc3ccnc4ccccc34)cc2s1 [Example 248, (S)-3,3-dimethyl-2-(6-(quinolin-4-yloxy)benzo[d]thiazol-2-ylamino)butan-1-ol]
inhibition at 1 µM ([1]; compounds of Table 3): 51%

inhibition at 1 µM (kinase domain of PDGFRβ; compounds of Table 3): 26% | inhibition at 1 µM (kinase domain of cKIT; compounds of Table 3): 16% | inhibition at 1 µM ([2]; compounds of Table 3): 100% | inhibition at 1 µM ([3]; compounds of Table 3): 96%
Compound: CCCc1nc(-c2cc(Oc3ccc4nc(N[C@@H]5CCCC[C@H]5O)sc4c3)ccn2)[nH]c1C [Example 267, (1R,2R)-2-(6-(2-(5-methyl-4-propyl-1H-imidazol-2-yl)pyridin-4-yloxy)benzo[d]thiazol-2-ylamino)cyclohexanol]
inhibition at 1 µM ([1]; compounds of Table 3): 100%

inhibition at 1 µM (kinase domain of PDGFRβ; compounds of Table 3): 28% | inhibition at 1 µM (kinase domain of cKIT; compounds of Table 3): 56% | inhibition at 1 µM ([2]; compounds of Table 3): 100% | inhibition at 1 µM ([3]; compounds of Table 3): 74%
Compound: c1ccc2c(Oc3ccc4nc(N[C@@H]5C[C@H]6CC[C@@H]5C6)sc4c3)ccnc2c1 [Example 251, N-((1R,2R,4S)-bicyclo[2.2.1]heptan-2-yl)-6-(quinolin-4-yloxy)benzo[d]thiazol-2-amine]
inhibition at 1 µM ([1]; compounds of Table 3): 80%

inhibition at 1 µM (kinase domain of PDGFRβ; compounds of Table 3): 0% | inhibition at 1 µM (kinase domain of cKIT; compounds of Table 3): 22% | inhibition at 1 µM ([2]; compounds of Table 3): 100% | inhibition at 1 µM ([3]; compounds of Table 3): 82%
Compound: CNC(=O)c1cc(Oc2ccc3nc(NC4CCCC(O)C4)sc3c2)ccn1 (centres unmarked) [Example 293, 4-(2-(3-hydroxycyclohexylamino)benzo[d]thiazol-6-yloxy)-N-methylpicolinamide]
inhibition at 1 µM ([1]; compounds of Table 3): 67%

inhibition at 1 µM (kinase domain of PDGFRβ): 0% | inhibition at 1 µM (kinase domain of cKIT): 21% | inhibition at 1 µM [2]: 100% | inhibition at 1 µM ([3]; HEK293H cells): 50%
Compound: CNC(=O)c1cc(Oc2ccc3nc(N[C@H]4CCCN(C(=O)C5CCCC5)C4)sc3c2)ccn1 [Example 335, (S)-4-(2-(1-(cyclopentanecarbonyl)piper-idin-3-ylamino)benzo[d]thiazol-6-yloxy)-N-methylpicolinamide]
inhibition at 1 µM ([1]; MCSF dependent MNFS60 cells): 57%

inhibition at 1 µM (kinase domain of PDGFRβ; compounds of Table 3): 64% | inhibition at 1 µM (kinase domain of cKIT; compounds of Table 3): 34% | inhibition at 1 µM ([2]; compounds of Table 3): 100% | inhibition at 1 µM ([3]; compounds of Table 3): 99%
Compound: Cc1nc(-c2cc(Oc3ccc4nc(N[C@@H]5CCCC[C@H]5O)sc4c3)ccn2)[nH]c1C [Example 232, (1R,2R)-2-(6-(2-(4,5-dimethyl-1H-imidazol-2-yl)pyridin-4-yloxy)benzo[d]thiazol-2-ylamino)cyclohexanol]
inhibition at 1 µM ([1]; compounds of Table 3): 100%

inhibition at 1 µM (kinase domain of PDGFRβ; compounds of Table 3): 36% | inhibition at 1 µM (kinase domain of cKIT; compounds of Table 3): 22% | inhibition at 1 µM ([2]; compounds of Table 3): 100% | inhibition at 1 µM ([3]; compounds of Table 3): 96%
Compound: CCCn1cc(-c2cc(Oc3ccc4nc(N[C@@H]5CCCC[C@H]5O)sc4c3)ccn2)cn1 [Example 281, (1R,2R)-2-(6-(2-(1-propyl-1H-pyrazol-4-yl)pyridin-4-yloxy)benzo[d]thiazol-2-ylamino)cyclohexanol]
inhibition at 1 µM ([1]; compounds of Table 3): 100%
